From patent US20160030407A1, “Method of Treating Inflammatory Lung Disease” (priority 2010, published 2016)
Values joined by “and” are separate entries in the source; they are usually repeats but may differ in a detail not shown here. Equal entries are not always repeated. “Also recorded” adds a separate entry of the source. Where two headings read alike, the source gives them in different places.

Key:
[1] = Physical signs after single i.v. dose (Example 3); format: in vivo, Sprague-Dawley rats; details: rat, nicotine 0.4 mg/kg, anatabine 0.10, 0.75, 1.0 mg/kg, tartrate
Method: Four aliquots of each dose level formulation were collected and stored at −80° C. The test compound, corresponding dose level, number of animals, and sample collection times for Phase I of the study are shown in Table 3. The test compound, corresponding dose level, number of animals, and sample collection times for Phase II of the study are shown in Table 4. The physical signs of each animal were monitored following administration of the test compound.

[2] = Single i.v. dose toxicity: necropsy observations and organ weights; format: in vivo, Sprague-Dawley rats
Method: (§1) Body weight and food consumption was measured daily for 14 days. On day 15, urine was collected on all surviving animals. The animals were euthanized and bled via cardiac puncture, and blood was collected for analysis. Tissues were collected, weighed, evaluated for gross abnormalities, and stored in 10% neutral-buffered formalin.
(§2) On day 15, urine was collected on all surviving animals for urinalysis. The animals were euthanized and bled via cardiac puncture. Blood was collected for hematology, clinical chemistry, and coagulation analysis. Tissues were collected, weighed, and stored in 10% neutral-buffered formalin for possible future analysis.

[3] = Single i.v. dose toxicity: body weights and food consumption; format: in vivo, Sprague-Dawley rats; details: for Average Daily Food Consumption per Rat: Nicotine 0.75 mg/kg; for Mean weight increase by day 14: single i.v. 0.75 mg/kg nicotine
Method: as §1
All animals were observed daily.

nAChR α3/β4 = nAChR α3/β4 (Homo sapiens, UniProt P30926+P32297); format: cell-based
Chain of nAChR α3/β4 (P32297 32-505): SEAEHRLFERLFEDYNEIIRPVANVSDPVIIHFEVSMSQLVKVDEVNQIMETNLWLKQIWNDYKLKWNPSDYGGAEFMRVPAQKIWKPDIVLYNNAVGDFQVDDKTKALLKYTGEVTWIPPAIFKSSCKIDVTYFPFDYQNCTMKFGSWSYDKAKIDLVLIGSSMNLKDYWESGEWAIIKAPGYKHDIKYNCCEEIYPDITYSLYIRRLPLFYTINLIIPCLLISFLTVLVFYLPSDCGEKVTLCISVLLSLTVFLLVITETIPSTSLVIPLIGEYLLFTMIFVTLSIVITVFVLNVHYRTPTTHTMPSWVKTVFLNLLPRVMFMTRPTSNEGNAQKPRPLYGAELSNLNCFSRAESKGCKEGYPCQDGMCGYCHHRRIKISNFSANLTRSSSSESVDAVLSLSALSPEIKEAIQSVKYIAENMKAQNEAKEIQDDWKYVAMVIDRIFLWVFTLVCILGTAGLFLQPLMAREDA
Chain of nAChR α3/β4 (P30926 22-498): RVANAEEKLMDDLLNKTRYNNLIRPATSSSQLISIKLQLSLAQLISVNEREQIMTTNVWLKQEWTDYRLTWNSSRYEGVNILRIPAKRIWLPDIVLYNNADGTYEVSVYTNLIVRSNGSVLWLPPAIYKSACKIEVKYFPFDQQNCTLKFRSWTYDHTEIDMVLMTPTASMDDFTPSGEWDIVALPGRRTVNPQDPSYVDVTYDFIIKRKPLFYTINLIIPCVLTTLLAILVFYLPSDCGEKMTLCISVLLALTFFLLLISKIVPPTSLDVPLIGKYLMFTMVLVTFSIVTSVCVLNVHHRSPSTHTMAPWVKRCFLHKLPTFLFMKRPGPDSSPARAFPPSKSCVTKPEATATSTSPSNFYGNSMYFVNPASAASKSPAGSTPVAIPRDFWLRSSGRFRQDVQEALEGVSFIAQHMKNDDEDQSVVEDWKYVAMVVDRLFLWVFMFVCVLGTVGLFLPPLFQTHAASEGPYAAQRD
Method: (§3) Briefly, cells were incubated with […] dye for 30 min at 37° C.

nAChR α4/β2 = biological target: T1, nAChR α4/β2 (Homo sapiens, UniProt P17787+P43681); format: cell-based; details: for Normalized % Potentiation: with 10 μM Ach, 100% = 10 μM Ach+3 μM epibatidine, 0% = 10 μM Ach
T1 construct: host or cells: HEK293 cells, transient
T1 sequence (P43681 29-627): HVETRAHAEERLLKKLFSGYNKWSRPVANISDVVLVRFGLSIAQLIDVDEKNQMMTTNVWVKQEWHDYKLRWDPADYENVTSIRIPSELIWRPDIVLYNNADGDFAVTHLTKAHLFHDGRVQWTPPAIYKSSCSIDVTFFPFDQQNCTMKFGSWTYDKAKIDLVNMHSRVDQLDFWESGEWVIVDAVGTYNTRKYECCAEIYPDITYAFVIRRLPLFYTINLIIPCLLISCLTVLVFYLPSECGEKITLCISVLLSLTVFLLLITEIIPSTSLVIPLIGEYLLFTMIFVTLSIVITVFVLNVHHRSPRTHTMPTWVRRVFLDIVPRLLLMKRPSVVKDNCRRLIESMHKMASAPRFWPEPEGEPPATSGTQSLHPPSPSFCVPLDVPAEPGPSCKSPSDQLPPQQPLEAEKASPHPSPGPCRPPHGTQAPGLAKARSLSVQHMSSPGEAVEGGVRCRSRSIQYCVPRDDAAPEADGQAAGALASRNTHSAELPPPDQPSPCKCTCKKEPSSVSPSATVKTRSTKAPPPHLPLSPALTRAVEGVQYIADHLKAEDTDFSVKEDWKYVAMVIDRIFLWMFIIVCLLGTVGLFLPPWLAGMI
T1 sequence (P17787 26-502): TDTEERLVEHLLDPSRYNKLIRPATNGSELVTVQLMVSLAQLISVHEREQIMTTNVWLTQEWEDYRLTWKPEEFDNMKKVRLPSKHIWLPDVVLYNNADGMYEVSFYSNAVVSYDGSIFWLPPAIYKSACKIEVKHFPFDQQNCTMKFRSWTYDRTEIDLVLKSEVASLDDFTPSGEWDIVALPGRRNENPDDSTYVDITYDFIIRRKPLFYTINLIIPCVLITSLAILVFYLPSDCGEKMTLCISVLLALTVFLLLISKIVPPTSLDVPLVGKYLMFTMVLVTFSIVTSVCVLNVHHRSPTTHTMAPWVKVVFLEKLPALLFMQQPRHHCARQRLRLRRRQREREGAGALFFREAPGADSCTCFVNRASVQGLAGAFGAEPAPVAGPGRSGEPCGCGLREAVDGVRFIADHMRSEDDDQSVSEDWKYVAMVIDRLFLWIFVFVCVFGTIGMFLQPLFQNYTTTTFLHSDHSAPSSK
Method: as §3

[4] = Single i.v. dose toxicity: hematology; format: in vivo, Sprague-Dawley rats
Excerpt: as §2

[5] = Group E: Nicotine 0.75 mg/kg (Females), individual animals, tartrate
[6] = Group E: Nicotine 0.75 g/kg Males), individual animals, tartrate
[7] = female animals, Nicotine 0.75 mg/kg, n = 3
[8] = male rats, single i.v. 0.75 mg/kg nicotine, day 15
[9] = 0.75 mg/kg nicotine, female rats, individual animals
[10] = 0.75 mg/kg nicotine, female rats, individual animals, tartrate
[11] = 0.75 mg/kg nicotine, male rats, individual animals
[12] = 0.75 mg/kg nicotine, male rats, individual animals, tartrate
[13] = 0.75 mg/kg, gender F, group mean
[14] = 0.75 mg/kg, gender M, group mean

## CN1CCCC1c1cccnc1.O=C(O)C(O)C(O)C(=O)O (single isomer, unassigned; (-)) [Nicotine, (−) Nicotine hydrogen tartrate, reference compound]
[1]
  physical signs post dose: experienced tremors immediately post dose; also recorded: experienced labored breathing
[2]; [5]
  Tissue Collection Weights: Heart: 0.83 g
  Tissue Collection Weights: Lungs: 1.20 g
  Tissue Collection Weights: Ovaries/uterus: 0.92 g
  Tissue Collection Weights: Small intestine: 0.41 g and 0.40 g and 0.28 g
  Tissue Collection Weights: Spleen: 0.46 g (2×) and 0.76 g
  Tissue Collection Weights: Thymus: 0.54 g and 0.48 g (2×)
[2]; [6]
  Tissue Collection Weights: Brain: 1.90 g
  Tissue Collection Weights: Heart: 1.20 g
  Tissue Collection Weights: Prostate: 0.41 g and 0.28 g (2×) and 0.45 g
  Tissue Collection Weights: Small intestine: 0.71 g and 0.56 g and 0.53 g and 0.40 g
  Tissue Collection Weights: Spleen: 0.81 g and 0.62 g and 0.78 g and 0.86 g
  Tissue Collection Weights: Thymus: 0.54 g and 0.46 g and 0.56 g and 0.76 g
[2]; [7]
  Organ Weight Brain, Mean: 1.86 g
  Organ Weight Heart, Mean: 0.99 g
  Organ Weight Kidneys, Mean: 2.31 g
  Organ Weight Liver, Mean: 9.59 g
  Organ Weight Lungs, Mean: 1.32 g
  Organ Weight Ovaries/uteris, Mean: 1.28 g
  Organ Weight, Small intestine (mean): 0.36 g
  Organ Weight, Spleen (mean): 0.56 g
  Organ Weight, Thymus (mean): 0.50 g
[2]; [8]
  Organ Weight, Prostate (mean): 0.36 g
  Organ Weight, Small intestine (mean): 0.55 g
  Organ Weight, Spleen (mean): 0.77 g
  Organ Weight, Thymus (mean): 0.58 g
[2]; nicotine 0.75 mg/kg, heart, liver and kidneys in males, thymus and heart in females
  organ weights vs vehicle controls: significantly lower than those of the corresponding vehicle controls
[3]; Female, day 6, cages 1 and 2, tartrate
  Average Daily Food Consumption per Rat: 20.0 grams
[3]; Males, day 8, cages 1 and 2, tartrate
  Average Daily Food Consumption per Rat: 24.0 grams
[3]; individual male rats, single i.v. 0.75 mg/kg, tartrate, 0.75 mg/kg
  day 13 B.W.: 330 g
[3]; nicotine 0.75 mg/kg single i.v. dose, day 6, male rats (individual animals), tartrate
  B.W. day 6: 270 g
[3]; female rats
  Mean weight increase by day 14: 40.8 g
[3]; male rats, listed as nicotine, tartrate, 0.75 mg/kg
  Mean weight increase by day 14: significantly lower than the controls
[3]; male rats, tartrate, 0.75 mg/kg
  Mean weight increase by day 14: 98.5 g
nAChR α3/β4
  potentiation: Neither nicotine nor anatabine potentiated
nAChR α4/β2; 100 μM Ach + 0.3 μM epibatidine, not concentration-dependent, IC50s could not be determined
  inhibition: inhibited receptor activity
nAChR α4/β2; test conc 0.3 μM
  Normalized % Potentiation: −46.00%
nAChR α4/β2; test conc 1 μM
  Normalized % Potentiation: −46.34%
nAChR α4/β2; test conc 3 μM
  Normalized % Potentiation: −40.54%
nAChR α4/β2; test conc 10 μM
  Normalized % Potentiation: −42.16%
nAChR α4/β2; test conc 30 μM
  Normalized % Potentiation: −43.70%
nAChR α4/β2; test conc 100 μM
  Normalized % Potentiation: −43.40%
nAChR α4/β2; test conc 300 μM
  Normalized % Potentiation: −34.56%
nAChR α4/β2; test conc 1000 μM
  Normalized % Potentiation: −39.66%
[4]; [9]
  ANISOCYTOSIS: SLIGHT
  BASOPHIL: 0%
  EOSINOPHIL: 0%
  POLYCHROMASIA: SLIGHT
[4]; [10]
  LYMPHOCYTE: 83% and 87% and 89%
  MCHC: 34%
  MONOCYTE: 2% and 1% and 0%
  NEUTROPHILSEG: 15% and 12% and 11%
  RE[…]: 5.8% and 4.9% and 4.5%
[4]; [11]
  ANISOCYTOSIS: SLIGHT
  BASOPHIL: 0%
  EOSINOPHIL: 0%
  POLYCHROMASIA: SLIGHT
[4]; [12]
  HCT: 50%
  LYMPHOCYTE: 86% and 87% and 80% and 90%
  MONOCYTE: 2% (3×) and 4%
  NEUTROPHILSEG: 12% and 11% and 16% and 8%
  RE[…]: 4.3% and 4.8% and 5.6% and 6.1%
[4]; [13]
  BASOPHIL: 0.0%
  EOSINOPHIL: 0.0%
  HGB: 16.0 g/dL
  MONOCYTE: 1.0%
  PLATELET COUNT: 1.363e+06 µL⁻¹
  RBC: 8e+06 µL⁻¹
  RE[…]: 5.1%
  WBC: 10200 µL⁻¹
[4]; [14]
  BASOPHIL: 0.0%
  EOSINOPHIL: 0.0%
  MCHC: 34.0%
  MONOCYTE: 2.5%
  PLATELET COUNT: 1.3558e+06 µL⁻¹
  RBC: 7.6e+06 µL⁻¹
  RE[…]: 5.2%
  WBC: 11400 µL⁻¹
[4]; female rats, […] anatabine, 0.75 mg/kg nicotine i.v.
  mean corpuscular volume (MCV) and mean corpuscular hemoglobin (MCH) vs control: small, but statistically significant decreases
